One data set addresses T1, RfxMCR-N (Roseiflexus castenholzii, UniProt A7NN59).
T1 construct: gene Rcas_2929; N-terminal fragment Met1-Phe572 (SDR1-SDR2), C-terminal His6 tag (pET28a), E. coli BL21(DE3)
The data set can be described thus: X-ray crystal structure, […] Å. The format is binding. Conditions: ternary complex with NADP+; SDR1 site; MSA not added, modelled in extra density; crystals grown in 1 M sodium malonate pH 5.0.

A further data set addresses T2, RfxMCR-C (Roseiflexus castenholzii, UniProt A7NN59).
T2 construct: gene Rcas_2929; C-terminal fragment Gly573-Val1229 (SDR3-ED-SDR4), N-terminal His6 tag (pET28a), E. coli BL21(DE3)
The data set is described as follows: X-ray crystal structure, […] Å. Type of data set: binding. Conditions: ternary complex with NADP+; SDR3 / ED interface; MSA not added, modelled in density.

Data set [1] addresses T3, full-length RfxMCR (Roseiflexus castenholzii, UniProt A7NN59, T165A).
T3 construct: gene Rcas_2929; full length Met1-Val1229, C-terminal His6 tag (pET20b), E. coli BL21(DE3); homodimer ~270 kDa
The data set can be described thus: NADPH oxidation at […] nm. The format is biochemical. To be noted: 0.4 mM NADPH, 5 mM MgCl2, 100 mM Tris-HCl pH 8.0, 150 mM NaCl, 50°C; apparent; overall two-step reduction; SDR1 site (second step, MSA to 3-HP).

Data set [2] has as its target T4, full-length RfxMCR (Roseiflexus castenholzii, UniProt A7NN59, K753A).
T4 construct: gene Rcas_2929; full length Met1-Val1229, C-terminal His6 tag (pET20b), E. coli BL21(DE3); homodimer ~270 kDa
The data set can be described thus: NADPH oxidation at […] nm. Type of data set: biochemical. To be noted: 0.4 mM NADPH, 5 mM MgCl2, 100 mM Tris-HCl pH 8.0, 150 mM NaCl, 50°C; apparent; overall two-step reduction.

Data set [3] addresses T5, full-length RfxMCR (Roseiflexus castenholzii, UniProt A7NN59, R785A).
T5 construct: gene Rcas_2929; full length Met1-Val1229, C-terminal His6 tag (pET20b), E. coli BL21(DE3); homodimer ~270 kDa
The data set is described as follows: NADPH oxidation at […] nm. The format is biochemical. To be noted: 0.4 mM NADPH, 5 mM MgCl2, 100 mM Tris-HCl pH 8.0, 150 mM NaCl, 50°C; apparent; overall two-step reduction; extra domain.

The target of data set [4] is T6, full-length RfxMCR (Roseiflexus castenholzii, UniProt A7NN59, S731A).
T6 construct: gene Rcas_2929; full length Met1-Val1229, C-terminal His6 tag (pET20b), E. coli BL21(DE3); homodimer ~270 kDa
T6 sequence (A7NN59 entry or part of it S731A): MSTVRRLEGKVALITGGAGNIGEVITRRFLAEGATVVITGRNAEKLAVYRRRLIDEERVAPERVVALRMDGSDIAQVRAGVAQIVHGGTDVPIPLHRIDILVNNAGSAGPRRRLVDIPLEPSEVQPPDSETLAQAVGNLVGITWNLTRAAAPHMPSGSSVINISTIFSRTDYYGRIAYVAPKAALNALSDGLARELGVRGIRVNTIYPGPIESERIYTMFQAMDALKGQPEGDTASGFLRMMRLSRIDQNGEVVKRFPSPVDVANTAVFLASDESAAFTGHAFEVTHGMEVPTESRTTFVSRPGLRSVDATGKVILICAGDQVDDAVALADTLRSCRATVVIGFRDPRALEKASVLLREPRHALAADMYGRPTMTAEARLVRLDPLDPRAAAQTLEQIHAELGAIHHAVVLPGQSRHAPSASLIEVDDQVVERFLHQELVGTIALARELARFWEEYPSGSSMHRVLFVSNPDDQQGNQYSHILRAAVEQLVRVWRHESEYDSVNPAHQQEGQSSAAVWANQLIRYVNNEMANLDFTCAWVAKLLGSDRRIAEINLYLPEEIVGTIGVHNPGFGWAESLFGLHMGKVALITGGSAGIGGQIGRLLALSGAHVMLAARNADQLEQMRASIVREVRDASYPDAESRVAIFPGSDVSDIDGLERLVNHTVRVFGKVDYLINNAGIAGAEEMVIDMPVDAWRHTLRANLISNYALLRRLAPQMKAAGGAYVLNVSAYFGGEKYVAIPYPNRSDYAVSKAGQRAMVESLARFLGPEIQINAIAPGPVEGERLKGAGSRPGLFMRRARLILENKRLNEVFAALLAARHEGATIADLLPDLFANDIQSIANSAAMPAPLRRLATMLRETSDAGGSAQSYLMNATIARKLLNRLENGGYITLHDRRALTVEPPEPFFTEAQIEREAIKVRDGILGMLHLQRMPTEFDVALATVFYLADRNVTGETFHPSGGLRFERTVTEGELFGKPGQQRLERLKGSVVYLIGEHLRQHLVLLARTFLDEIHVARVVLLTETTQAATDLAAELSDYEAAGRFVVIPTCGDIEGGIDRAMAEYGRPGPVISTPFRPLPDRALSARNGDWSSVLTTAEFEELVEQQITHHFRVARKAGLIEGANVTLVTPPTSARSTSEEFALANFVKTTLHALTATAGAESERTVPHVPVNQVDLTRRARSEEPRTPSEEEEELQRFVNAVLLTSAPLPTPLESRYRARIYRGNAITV
The data set is described as follows: NADPH oxidation at […] nm. To be noted: 0.4 mM NADPH, 5 mM MgCl2, 100 mM Tris-HCl pH 8.0, 150 mM NaCl, 50°C; apparent; overall two-step reduction; SDR3 site. The format is biochemical.

Data set [5] has as its target T7, full-length RfxMCR (Roseiflexus castenholzii, UniProt A7NN59, Y749A).
T7 construct: gene Rcas_2929; full length Met1-Val1229, C-terminal His6 tag (pET20b), E. coli BL21(DE3); homodimer ~270 kDa
The data set is described as follows: NADPH oxidation at […] nm. The format is biochemical. To be noted: 0.4 mM NADPH, 5 mM MgCl2, 100 mM Tris-HCl pH 8.0, 150 mM NaCl, 50°C; apparent; overall two-step reduction.

In data set [6] the target is T8, full-length RfxMCR (Roseiflexus castenholzii, UniProt A7NN59, K182A).
T8 construct: gene Rcas_2929; full length Met1-Val1229, C-terminal His6 tag (pET20b), E. coli BL21(DE3); homodimer ~270 kDa
The data set is described as follows: NADPH oxidation at […] nm. Type of data set: biochemical. To be noted: 0.4 mM NADPH, 5 mM MgCl2, 100 mM Tris-HCl pH 8.0, 150 mM NaCl, 50°C; apparent; overall two-step reduction.

In data set [7] the target is T9, full-length RfxMCR (Roseiflexus castenholzii, UniProt A7NN59, R799A).
T9 construct: gene Rcas_2929; full length Met1-Val1229, C-terminal His6 tag (pET20b), E. coli BL21(DE3); homodimer ~270 kDa
T9 sequence (A7NN59 entry or part of it R799A): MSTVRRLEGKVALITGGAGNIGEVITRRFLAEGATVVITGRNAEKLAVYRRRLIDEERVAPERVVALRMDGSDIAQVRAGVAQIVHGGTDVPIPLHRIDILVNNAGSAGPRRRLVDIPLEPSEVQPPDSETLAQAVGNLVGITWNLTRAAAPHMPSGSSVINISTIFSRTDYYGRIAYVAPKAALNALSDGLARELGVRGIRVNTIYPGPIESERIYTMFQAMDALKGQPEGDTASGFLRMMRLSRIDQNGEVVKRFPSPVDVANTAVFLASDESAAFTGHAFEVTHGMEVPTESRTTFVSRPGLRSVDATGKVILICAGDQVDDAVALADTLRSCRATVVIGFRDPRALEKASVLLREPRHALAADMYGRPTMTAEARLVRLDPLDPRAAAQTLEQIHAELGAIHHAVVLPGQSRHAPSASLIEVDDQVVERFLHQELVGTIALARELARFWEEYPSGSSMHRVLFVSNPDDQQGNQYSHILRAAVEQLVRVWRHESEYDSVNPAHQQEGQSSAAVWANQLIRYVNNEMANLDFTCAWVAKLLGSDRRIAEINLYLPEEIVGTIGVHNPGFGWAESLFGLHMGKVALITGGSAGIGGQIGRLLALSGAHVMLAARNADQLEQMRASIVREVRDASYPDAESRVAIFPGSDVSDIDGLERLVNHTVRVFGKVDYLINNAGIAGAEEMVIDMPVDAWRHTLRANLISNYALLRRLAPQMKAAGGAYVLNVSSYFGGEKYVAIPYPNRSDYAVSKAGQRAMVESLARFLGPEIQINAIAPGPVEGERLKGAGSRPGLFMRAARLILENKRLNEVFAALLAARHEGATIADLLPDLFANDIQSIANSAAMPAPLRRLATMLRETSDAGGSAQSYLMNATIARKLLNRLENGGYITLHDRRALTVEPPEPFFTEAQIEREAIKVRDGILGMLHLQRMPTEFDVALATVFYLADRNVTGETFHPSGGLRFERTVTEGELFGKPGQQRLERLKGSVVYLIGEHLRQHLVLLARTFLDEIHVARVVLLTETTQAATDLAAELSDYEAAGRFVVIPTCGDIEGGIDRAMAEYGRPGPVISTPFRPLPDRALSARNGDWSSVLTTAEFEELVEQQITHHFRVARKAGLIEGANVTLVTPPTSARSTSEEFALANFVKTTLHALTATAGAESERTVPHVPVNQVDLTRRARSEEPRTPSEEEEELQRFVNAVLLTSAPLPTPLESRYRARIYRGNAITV
The data set is described as follows: NADPH oxidation at […] nm. To be noted: 0.4 mM NADPH, 5 mM MgCl2, 100 mM Tris-HCl pH 8.0, 150 mM NaCl, 50°C; apparent; overall two-step reduction; extra domain. The format is biochemical.

Data set [8] addresses T10, full-length RfxMCR (Roseiflexus castenholzii, UniProt A7NN59, L795A).
T10 construct: gene Rcas_2929; full length Met1-Val1229, C-terminal His6 tag (pET20b), E. coli BL21(DE3); homodimer ~270 kDa
The data set can be described thus: NADPH oxidation at […] nm. The format is biochemical. To be noted: 0.4 mM NADPH, 5 mM MgCl2, 100 mM Tris-HCl pH 8.0, 150 mM NaCl, 50°C; apparent; overall two-step reduction.

For data set [9], the target named is T11, full-length RfxMCR (Roseiflexus castenholzii, UniProt A7NN59, Y178A).
T11 construct: gene Rcas_2929; full length Met1-Val1229, C-terminal His6 tag (pET20b), E. coli BL21(DE3); homodimer ~270 kDa
The data set is described as follows: NADPH oxidation at […] nm. The format is biochemical. Conditions: 0.4 mM NADPH, 5 mM MgCl2, 100 mM Tris-HCl pH 8.0, 150 mM NaCl, 50°C; apparent; overall two-step reduction.

In data set [10] the target is T12, full-length RfxMCR (Roseiflexus castenholzii, UniProt A7NN59, R746A).
T12 construct: gene Rcas_2929; full length Met1-Val1229, C-terminal His6 tag (pET20b), E. coli BL21(DE3); homodimer ~270 kDa
T12 sequence (A7NN59 entry or part of it R746A): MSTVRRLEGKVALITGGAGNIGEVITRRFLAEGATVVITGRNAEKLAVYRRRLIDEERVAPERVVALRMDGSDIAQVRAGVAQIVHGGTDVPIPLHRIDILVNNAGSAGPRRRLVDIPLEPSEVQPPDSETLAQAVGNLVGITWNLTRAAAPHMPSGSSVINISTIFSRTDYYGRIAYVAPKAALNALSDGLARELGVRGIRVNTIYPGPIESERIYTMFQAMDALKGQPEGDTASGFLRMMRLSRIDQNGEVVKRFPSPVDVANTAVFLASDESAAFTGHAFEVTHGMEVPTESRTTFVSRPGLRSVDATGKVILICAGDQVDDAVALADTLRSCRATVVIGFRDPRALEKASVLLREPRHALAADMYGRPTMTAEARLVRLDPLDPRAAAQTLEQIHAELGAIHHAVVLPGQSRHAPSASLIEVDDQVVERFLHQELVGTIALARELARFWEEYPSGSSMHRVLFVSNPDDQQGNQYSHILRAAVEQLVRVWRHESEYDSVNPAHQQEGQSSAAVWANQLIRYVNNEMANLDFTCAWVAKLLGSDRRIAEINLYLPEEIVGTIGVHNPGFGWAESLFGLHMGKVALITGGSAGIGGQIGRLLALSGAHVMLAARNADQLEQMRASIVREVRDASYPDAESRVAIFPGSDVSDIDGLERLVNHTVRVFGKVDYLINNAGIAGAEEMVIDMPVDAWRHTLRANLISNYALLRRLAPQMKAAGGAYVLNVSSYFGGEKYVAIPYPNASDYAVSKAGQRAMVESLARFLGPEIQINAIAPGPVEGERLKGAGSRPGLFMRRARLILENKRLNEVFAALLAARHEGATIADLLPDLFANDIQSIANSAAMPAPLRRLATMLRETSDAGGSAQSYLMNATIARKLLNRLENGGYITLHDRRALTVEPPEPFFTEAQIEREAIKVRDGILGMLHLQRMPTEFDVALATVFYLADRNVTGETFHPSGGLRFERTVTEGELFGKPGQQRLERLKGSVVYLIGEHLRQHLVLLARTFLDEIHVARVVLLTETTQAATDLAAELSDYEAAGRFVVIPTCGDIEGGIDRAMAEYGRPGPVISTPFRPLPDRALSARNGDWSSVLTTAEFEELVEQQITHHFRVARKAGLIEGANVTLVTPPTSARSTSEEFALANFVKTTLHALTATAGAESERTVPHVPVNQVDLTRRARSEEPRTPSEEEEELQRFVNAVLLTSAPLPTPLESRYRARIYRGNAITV
The data set can be described thus: NADPH oxidation at […] nm. Type of data set: biochemical. Conditions: 0.4 mM NADPH, 5 mM MgCl2, 100 mM Tris-HCl pH 8.0, 150 mM NaCl, 50°C; apparent; overall two-step reduction; SDR3 site.

Data set [11] deals with the molecule itself. The data set is described as follows: crystal structure; RfxMCR-N with NADP+ and MSA; 1 M sodium malonate pH 5.0, 0.1 M sodium acetate pH 4.5, 3% PEG 20,000, 16°C; P6(5)22, one monomer in the asymmetric unit, dimer by crystal packing; 2.0 Å.

T10 sequence (A7NN59 entry or part of it L795A): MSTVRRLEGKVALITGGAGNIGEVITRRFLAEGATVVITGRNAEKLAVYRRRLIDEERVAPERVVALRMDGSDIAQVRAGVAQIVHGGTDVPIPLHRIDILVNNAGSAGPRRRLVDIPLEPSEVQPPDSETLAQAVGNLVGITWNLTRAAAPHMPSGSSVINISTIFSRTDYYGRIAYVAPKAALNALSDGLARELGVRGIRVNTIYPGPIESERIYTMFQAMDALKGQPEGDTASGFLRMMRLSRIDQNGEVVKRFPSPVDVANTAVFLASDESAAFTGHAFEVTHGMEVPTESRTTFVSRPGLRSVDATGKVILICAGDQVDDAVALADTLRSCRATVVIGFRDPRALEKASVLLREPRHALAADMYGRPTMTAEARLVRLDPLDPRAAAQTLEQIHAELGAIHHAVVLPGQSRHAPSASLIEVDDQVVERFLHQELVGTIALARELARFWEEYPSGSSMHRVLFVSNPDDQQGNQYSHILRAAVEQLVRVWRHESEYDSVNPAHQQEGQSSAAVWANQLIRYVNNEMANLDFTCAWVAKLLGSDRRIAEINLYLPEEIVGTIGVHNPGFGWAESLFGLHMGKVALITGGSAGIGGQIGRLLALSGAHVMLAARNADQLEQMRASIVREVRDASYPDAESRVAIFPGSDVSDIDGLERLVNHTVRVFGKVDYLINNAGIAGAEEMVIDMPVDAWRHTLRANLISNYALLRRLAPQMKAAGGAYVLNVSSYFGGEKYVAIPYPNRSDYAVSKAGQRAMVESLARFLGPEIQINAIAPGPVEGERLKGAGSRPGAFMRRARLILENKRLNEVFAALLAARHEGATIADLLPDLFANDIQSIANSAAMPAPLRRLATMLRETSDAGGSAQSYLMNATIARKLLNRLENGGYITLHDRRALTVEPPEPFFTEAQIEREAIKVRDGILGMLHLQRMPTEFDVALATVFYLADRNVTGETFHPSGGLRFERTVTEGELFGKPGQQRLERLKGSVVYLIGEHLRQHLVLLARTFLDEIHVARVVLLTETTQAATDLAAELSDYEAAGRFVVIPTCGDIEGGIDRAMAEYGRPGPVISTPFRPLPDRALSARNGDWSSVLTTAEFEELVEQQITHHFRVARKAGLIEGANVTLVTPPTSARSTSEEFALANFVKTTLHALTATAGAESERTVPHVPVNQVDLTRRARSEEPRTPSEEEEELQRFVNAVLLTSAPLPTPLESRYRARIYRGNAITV
T7 sequence (A7NN59 entry or part of it Y749A): as the sequence (A7NN59 entry or part of it R799A) above, with Y749A, A799R counted along it
T4 sequence (A7NN59 entry or part of it K753A): as the sequence (A7NN59 entry or part of it R799A) above, with K753A, A799R counted along it

As to `O=CCC(=O)O` [malonate semialdehyde], the “X-ray crystal structure, 2.0 Å” value at RfxMCR-N was “extra electron density that precisely matched the reduction intermediate MSA”. Further, the “X-ray crystal structure, 2.3 Å” value at RfxMCR-C is “a cofactor NADP^+ and intermediate MSA were resolved at the interface between the SDR3”.
For `CC(C)(COP(=O)(O)OP(=O)(O)OC[C@H]1O[C@@H](n2cnc3c(N)ncnc32)[C@H](O)[C@@H]1OP(=O)(O)O)[C@@H](O)C(=O)NCCC(=O)NCCSC(=O)CC(=O)O` [malonyl-CoA], the overall enzymatic activity entry at full-length RfxMCR [1] was “Site-directed mutation of Thr165, Tyr172, Arg175, Tyr178, and Lys182 to Ala residues”; on full-length RfxMCR [2] it was “Ser731, Tyr749, Lys753, and Arg799 completely eliminated enzymatic activity”; on full-length RfxMCR [3] it was “mutagenesis of Arg746, Arg785, and Leu795”; at full-length RfxMCR [4], “Ser731, Tyr749, Lys753, and Arg799 completely eliminated enzymatic activity”; at full-length RfxMCR [5] it was “Ser731, Tyr749, Lys753, and Arg799 completely eliminated enzymatic activity”; at full-length RfxMCR [6], “Site-directed mutation of Thr165, Tyr172, Arg175, Tyr178, and Lys182 to Ala residues”. For the same molecule, the overall enzymatic activity entry at full-length RfxMCR [7] was “Ser731, Tyr749, Lys753, and Arg799 completely eliminated enzymatic activity”; at full-length RfxMCR [8], “mutagenesis of Arg746, Arg785, and Leu795”; on full-length RfxMCR [9], “Site-directed mutation of Thr165, Tyr172, Arg175, Tyr178, and Lys182 to Ala residues”; at full-length RfxMCR [10], “mutagenesis of Arg746, Arg785, and Leu795”.

B1: RfxMCR-N (Met1-Phe572) (domain or fragment, Roseiflexus castenholzii DSM 13941, UniProt A7NN59 1-572, looked up)
chain: MSTVRRLEGKVALITGGAGNIGEVITRRFLAEGATVVITGRNAEKLAVYRRRLIDEERVAPERVVALRMDGSDIAQVRAGVAQIVHGGTDVPIPLHRIDILVNNAGSAGPRRRLVDIPLEPSEVQPPDSETLAQAVGNLVGITWNLTRAAAPHMPSGSSVINISTIFSRTDYYGRIAYVAPKAALNALSDGLARELGVRGIRVNTIYPGPIESERIYTMFQAMDALKGQPEGDTASGFLRMMRLSRIDQNGEVVKRFPSPVDVANTAVFLASDESAAFTGHAFEVTHGMEVPTESRTTFVSRPGLRSVDATGKVILICAGDQVDDAVALADTLRSCRATVVIGFRDPRALEKASVLLREPRHALAADMYGRPTMTAEARLVRLDPLDPRAAAQTLEQIHAELGAIHHAVVLPGQSRHAPSASLIEVDDQVVERFLHQELVGTIALARELARFWEEYPSGSSMHRVLFVSNPDDQQGNQYSHILRAAVEQLVRVWRHESEYDSVNPAHQQEGQSSAAVWANQLIRYVNNEMANLDFTCAWVAKLLGSDRRIAEINLYLPEEIVGTIGVHNPGF
notes: malonyl-CoA reductase (MCR) of Roseiflexus castenholzii DSM 13941, gene Rcas_2929, residues Met1-Phe572 (SDR1 and SDR2 domains); Cloned into pET28a at XhoI and NcoI; also called N-terminal fragment; SDR1-SDR2
For the molecule B1, the stoichiometry N – broadly, a count of units in the complex or per binding partner – in data set [11] came out at 2.
